{
  "source": "patent US8716292B2",
  "about": "“Riminophenazines with 2-(heteroaryl)amino substituents and their anti-microbial activity” (priority 2010, dated 2014)",
  "origin": "cited, not measured here",
  "system": "Mycobacterium tuberculosis",
  "conditions": "relative to clofazimine; cited from earlier work",
  "data": [
    {"smiles": "CCN(CC)CCC/N=c1\\cc2n(-c3ccc(Cl)c(Cl)c3)c3ccccc3nc-2cc1Nc1ccc(Cl)c(Cl)c1", "note": "[B4154]", "values": [
      {"measurement": "in vitro activity", "value": "improved in vitro activity"}
    ]}
  ]
}
